According to publication PMC8364938 (MicrobiologyOpen, 2021):

Test system: 9His-cgLAAO1
Test: coupled peroxidase/o-dianisidine assay, Hanes-Woolf
Format: biochemical, Colletotrichum gloeosporioides
Settings: 50 mM TEA/HCl pH 7.0, 30 °C

Km [µM] | SMILES
1060 ± 500 | CSCC[C@H](N)C(=O)O [L-methionine]
320 ± 30 | N[C@@H](Cc1ccccc1)C(=O)O [L-phenylalanine]

Continued, compound first:

SMILES | Km [µM]
NC(=O)CC[C@H](N)C(=O)O [L-glutamine] | 760 ± 100
COC(=O)[C@@H](N)CC(C)C [L-leucine methyl ester] | 12900 ± 300
CC(C)C[C@H](N)C(=O)O [L-leucine] | 1200 ± 200
